Test results: patent US20060069132A1, “Azolecarboxamide herbicides” (priority 2004, published 2006)

Key:
Experiment in all cases: Test A pre-/postemergence herbicide test
morningglory = type: in vivo, Ipomoea spp.
From the text: (§1) Seeds of plant species selected from barnyardgrass (Echinochloa crus-galli (L.) Beauv.), downy bromegrass (Bromus tectorum L.), large crabgrass (Digitaria sanguinalis (L.) Scop.), giant foxtail (Setaria faberi Herrm.), morningglory (Ipomoea spp.), redroot pigweed (Amaranthus retroflexus L.) and velvetleaf (Abutilon theophrasti Medik.) were planted into a sandy loam soil and treated preemergence with a directed soil spray using test chemicals formulated in a non-phytotoxic solvent mixture which included a surfactant. At the same time plants selected from these species were also treated postemergence by spraying to runoff with test chemicals formulated.
(§2) Plants ranged in height from 2 to 10 cm and were in the one- to two-leaf stage for the postemergence treatment. Treated plants and untreated controls were maintained in a greenhouse for approximately ten days, after which time all treated plants were compared to untreated controls and visually evaluated for injury. Plant response ratings, summarized in Table A, are based on a 0 to 100 scale where 0 is no effect and 100 is complete control. A dash (-) response means no test results.

velvetleaf = type: in vivo, Abutilon theophrasti
From the text: as §1, §2

giant foxtail = type: in vivo, Setaria faberi
From the text: as §1, §2

barnyardgrass = type: in vivo, Echinochloa crus-galli
From the text: as §1, §2

large crabgrass = type: in vivo, Digitaria sanguinalis
From the text: as §1, §2

redroot pigweed = type: in vivo, Amaranthus retroflexus
From the text: as §1, §2

[1] = Postemergence, 125 g ai/ha, 0 to 100 scale, 0 no effect, 100 complete control
[2] = Postemergence, 500 g ai/ha, 0 to 100 scale, 0 no effect, 100 complete control
[3] = Preemergence, 500 g ai/ha, visual rating, 0 to 100 scale (0 no effect, 100 complete control)
[4] = preemergence, 125 g ai/ha, visual injury, 0 to 100 scale (0 no effect, 100 complete control)
[5] = preemergence, 500 g ai/ha, visual injury, 0 to 100 scale (0 no effect, 100 complete control)
[6] = Postemergence, 2000 g ai/ha, 0 to 100 scale, 0 no effect, 100 complete control
[7] = Preemergence, 2000 g ai/ha, visual rating, 0 to 100 scale (0 no effect, 100 complete control)

| SMILES | Morningglory plant response rating (morningglory; [1]) | Morningglory plant response rating (morningglory; [3]) | Morningglory plant response rating (morningglory; [4]) | Velvetleaf plant response rating (velvetleaf; [1]) | Velvetleaf plant response rating (velvetleaf; [3]) | Velvetleaf plant response rating (velvetleaf; [4]) | Foxtail, Giant plant response rating (giant foxtail; [1]) | Foxtail, Giant plant response rating (giant foxtail; [3]) | Foxtail, Giant plant response rating (giant foxtail; [4]) | Barnyardgrass plant response rating (barnyardgrass; [1]) | Barnyardgrass plant response rating (barnyardgrass; [3]) | Barnyardgrass plant response rating (barnyardgrass; [4]) | Crabgrass, Large plant response rating (large crabgrass; [1]) | Crabgrass, Large plant response rating (large crabgrass; [3]) | Crabgrass, Large plant response rating (large crabgrass; [4]) | Pigweed plant response rating (redroot pigweed; [1]) | Pigweed plant response rating (redroot pigweed; [3]) | Pigweed plant response rating (redroot pigweed; [4]) | Morningglory plant response rating (morningglory; [2]) | Velvetleaf plant response rating (velvetleaf; [2]) | other results |
| --- | --- | --- | --- | --- | --- | --- | --- | --- | --- | --- | --- | --- | --- | --- | --- | --- | --- | --- | --- | --- | --- |
| C=Cn1nc(C(C)(C)C)cc1C(=O)Nc1cccc(C(=O)NCCCl)c1 [Compound 38] | 0 | 10 | 5 | 10 | 5 | 0 | 50 | 0 | 0 | 40 | 5 | 0 | 30 | 10 | 0 | 50 | 0 | 0 | – | – | Plant response rating, Morningglory (morningglory; [2]): 0; Plant response rating, Velvetleaf (velvetleaf; [2]): 20; Plant response rating, Foxtail, Giant (giant foxtail; [2]): 60; Plant response rating, Barnyardgrass (barnyardgrass; [2]): 55; Plant response rating, Crabgrass, Large (large crabgrass; [2]): 60; Plant response rating, Pigweed (redroot pigweed; [2]): 70 |
| CCc1nn(C(C)(C)C)cc1C(=S)Nc1cc(C(=S)N(C)C)ccc1F [Compound 453] | 10 | – | 0 | 5 | – | 0 | 10 | – | 0 | 10 | – | 20 | 10 | – | 10 | 10 | – | 10 | 10 | 10 | Morningglory plant response rating (morningglory; [5]): 0; Velvetleaf plant response rating (velvetleaf; [5]): 0; Foxtail, Giant plant response rating (giant foxtail; [2]): 10; Foxtail, Giant plant response rating (giant foxtail; [5]): 0; Barnyardgrass plant response rating (barnyardgrass; [2]): 15; Barnyardgrass plant response rating (barnyardgrass; [5]): 45; Crabgrass, Large plant response rating (large crabgrass; [2]): 10; Crabgrass, Large plant response rating (large crabgrass; [5]): 15; Pigweed plant response rating (redroot pigweed; [2]): 20; Pigweed plant response rating (redroot pigweed; [5]): 10 |
| Cn1nc(C(C)(C)C)cc1C(=O)Nc1cccc2c1CCC2=NO [Compound 111] | – | 0 | – | – | 0 | – | – | 45 | – | – | 0 | – | – | 25 | – | – | 10 | – | 5 | 0 | Plant response rating, Morningglory (morningglory; [6]): 0; Morningglory plant response rating (morningglory; [7]): 0; Plant response rating, Velvetleaf (velvetleaf; [6]): 0; Velvetleaf plant response rating (velvetleaf; [7]): 0; Foxtail, Giant plant response rating (giant foxtail; [2]): 0; Plant response rating, Foxtail, Giant (giant foxtail; [6]): 0; Foxtail, Giant plant response rating (giant foxtail; [7]): 75; Barnyardgrass plant response rating (barnyardgrass; [2]): 0; Plant response rating, Barnyardgrass (barnyardgrass; [6]): 0; Barnyardgrass plant response rating (barnyardgrass; [7]): 10; Crabgrass, Large plant response rating (large crabgrass; [2]): 10; Plant response rating, Crabgrass, Large (large crabgrass; [6]): 10; Crabgrass, Large plant response rating (large crabgrass; [7]): 30; Pigweed plant response rating (redroot pigweed; [2]): 5; Plant response rating, Pigweed (redroot pigweed; [6]): 10; Pigweed plant response rating (redroot pigweed; [7]): 10 |
